{
  "source": "patent US6737241B2",
  "about": "“Methods for screening for transdominant intracellular effector peptides and RNA molecules” (Rigel Pharmaceuticals, Inc., priority 1996, dated 2004)",
  "key": {"Jurkat EcoR cells": {"system": "Jurkat EcoR cells", "assay": "IgM anti-Fas (CH-11) selection of retrovirus-transduced Jurkat cells", "conditions": "peptide expressed in cells with a retrovirus", "procedure": "A sterile Acrodisc 0.45 micron syringe filter (Gelman Sciences) was attached to the end of a 10 ml sterile syringe and the injection stopper sterilely removed from the syringe barrel. At 48 hours post-transfection, the virus supernatant was removed from the Phoenix cells and added to the syringe barrel. The stopper was replaced and the virus supernatant was ejected dropwise into a clean, sterile conical tube. […] Polybrene was added to each viral supernatant (Sigma; 2.5 mg/ml in ddH20=500×; store at −20° C.) to a final concentration of 5 mg/ml. 4.5×10^6 Jurkat EcoR cells (Jurkat cells stably expressing the ecotropic retrovirus receptor) were pelleted for 1400 rpm for five min and resuspended in 9 mls of the OL-2 library virus supernatant. The cells were distributed in aliquots of 1 ml, or 5×10^5 cells, into the wells of a 24 well plate. 1.5×10^6 Jurkat EcoR cells were similarly treated with 3 mls each of the lacZ viral supernatant and the OL-1 viral supernatant. Each cell plate was wrapped in parafilm, placed in a microplate carrier (DuPont) and centrifuged at 2500 rpm for 90 min at 32° C. in a DuPont/Sorvall RT 6000B table top centrifuge. After centrifugation, the cells were observed under a microscope. […] The parafilm was removed from the plates, which were placed at 32° C. […]"}, "cells": {"system": "cells", "assay": "Staurosporin induced apoptosis in cells expressing the peptide with a retrovirus", "type": "cell-based", "conditions": "peptide expressed in cells with a retrovirus"}, "3T3 cells [1]": {"system": "3T3 cells", "assay": "Apotag / TUNEL assay of apoptosis induced by hTNFa and cycloheximide", "type": "cell-based", "conditions": "expressed in 3T3 cells from an MSCV retroviral promoter; hTNFa 50 ng/ml + cycloheximide 6 hours, harvested at 24 hours", "description": "Apotag assay: TUNEL (TdT-mediated dUTP-fluorescein nick end labeling) Boehringer Mannheim kit, catalog no. 168795\n3T3 cells transiently infected with either MFGLacZ, BCL2, or […] plasmids were grown to 50% confluence at the time of induction with hTNFa (50 ng/ml media) and cycloheximide ([…] media) for 6 hours. Cells were washed at 6 hours and harvested at 24 hours after induction. Cells were harvested by pooling all media from cells (in order to collect any apoptotic, floating cells) with the washings and trypsinized cells. The cells were spun and washed with PBS containing 1% BSA, transferred to an eppendorf tube and the wash repeated once.\nCells were fixed in 4% paraformaldehyde at room temperature for 30 minutes, washed in PBS/BSA, then resuspended in permeabilisation buffer for 2 minutes on ice. After permeabilisation, cells were washed twice in PBS/BSA and incubated at 37° C. for 1 hour with labeling buffer containing fluoresceinated dUTP, unlabeled nucleotide mixture and terminal deoxynucleotidyl transferase (TdT). Cells were washed twice with PBS/BSA, resuspended in PBS/BSA and transferred to a FACS tube for analysis. Samples were also visualized under the fluorescence microscope."}, "3T3 cells [2]": {"system": "3T3 cells", "assay": "Propidium iodide staining of fixed cells to assay for apoptosis (TNF/CXH)", "type": "cell-based", "conditions": "expressed in 3T3 cells", "description": "Propidium Iodide staining of fixed cells to assay for apoptosis: (Sherwood and Schimke, Methods in Cell Biology, 46:77-87, 1995) 3T3 cells transiently infected with MFGLacZ, Bcl2, or CPP32 were plated and treated with TNF/CXH as described above, and harvested and washed as above. Cells were then resuspended in 70% ethanol in PBS at 4° C. and kept at 4° C. overnight. When ready to FACS, cells were stained with propidium iodide as follows. Cells were spun at 14,000 RPM for 10 seconds and washed once with PBS/BSA. Cells were then resuspended in […] staining solution (PBS with 50 mg/ml RNase A (DNase-free) with 10 mg/ml propidium iodide) and incubated at 37° C for at least 1 hour. Cells were then pelleted and resuspended in PBS/BSA solution containing 10 mg/ml propidium iodide and analyzed by FACS scanning."}, "CPP32": {"target": "T1, CPP32 (Mus musculus, UniProt P70677)", "T1 construct": "endogenous in cells; host or cells: 3T3 cells (lysate after TNF/cycloheximide stimulation)", "T1 sequence (P70677 29-175 limits assumed)": "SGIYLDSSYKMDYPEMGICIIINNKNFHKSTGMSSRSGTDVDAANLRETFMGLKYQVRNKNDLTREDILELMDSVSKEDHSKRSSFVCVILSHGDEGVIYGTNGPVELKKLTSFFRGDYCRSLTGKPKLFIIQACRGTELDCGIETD", "T1 sequence (P70677 176-277 limits assumed)": "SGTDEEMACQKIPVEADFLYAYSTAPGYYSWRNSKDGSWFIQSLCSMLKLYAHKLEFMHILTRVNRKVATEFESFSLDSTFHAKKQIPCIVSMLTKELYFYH", "assay": "Enzymatic assay of CPP32 activity (DEVD-pNA cleavage) in extracts of TNF/CXH-stimulated 3T3 cells", "type": "biochemical", "conditions": "cell extracts, 30 min to 4 hours after TNF/CXH; control WIN cells rise at 2 hours", "description": "Enzymatic Assay of CPP32 activity: CPP32 Assay Kit: Clontech CPP32 Colorimetric Assay Kit (Cat. No. K2027-2): 3T3 cells were infected with the vectors described in Part I, section C, and selected in G418 media prior to assay. 6-well plates of 3T3 cells at near confluence were stimulated with TNF/CXH as described above and harvested at 30 min, 1, 2 and 4 hours after stimulation as follows. Cells were trypsinized and collected as described above. After transfering to an eppendorf tube, cells were spun and resuspended in […] chilled Cell Lysis Buffer. Cells were incubated for 10 minutes on ice, then […] of 2× Reaction Buffer containing DTT was added to each tube. 5 ml of the calorimetric conjugated substrate (DEVD-paranitroanilide, 50 mM final concentration) was added to each tube and incubated at 37° C. for 30 minutes. Samples were transferred to a 96 well plate and read on a spectrophotometer at O.D. of 405. […] By 4 hours, cells have begun to die and the activity is decreased. […] In the case of BCL2, it should be due to inhibition of apoptosis upstream of the enzyme. With CPP32 inhibitor peptide, it should be due to direct inhibition of enzymatic activity. These in vitro results are consistent with the results seen in cell death assays described above."}, "PKCa": {"system": "PKCa", "assay": "PKCa localization by immunohistochemistry after PMA stimulation", "type": "cell-based, Murine"}, "NIH 3T3 cells": {"system": "NIH 3T3 cells", "assay": "Staurosporine induction of apoptosis (ethidium bromide/acridine orange double staining)", "type": "cell-based", "conditions": "1 uM in serum-free media, within 24 hours", "description": "D. Staurosporine selection. Staurosporine, an alkaloid from Streptomyces sp., is a potent, broad spectrum inhibitor of protein kinases which binds the ATP site. Addition of 1 uM staurosporine in serum-free media to NIH 3T3 cells induced >99% apoptosis within 24 hours, as determined by ethidium bromide/acridine orange double staining as described for the Fas selection."}},
  "data": [
    {"compound": "MGKRKGDEVDGVGPP [OL-1, peptide encoded by oligonucleotide OL-1, positive control in Fas selection]", "values": [
      {"measurement": "inhibition of Fas-mediated apoptosis", "setting": "Jurkat EcoR cells", "value": "inhibit"},
      {"measurement": "inhibition of Staurosporin induced apoptosis", "setting": "cells", "value": "inhibit"}
    ]},
    {"compound": "Bcl2: Bcl2 protein expressed from a retroviral vector; known inhibitor of apoptosis, positive control", "values": [
      {"measurement": "inhibition of apoptosis induced by tumor necrosis factor and cycloheximide (TUNEL)", "setting": "3T3 cells [1]", "value": "able to inhibit apoptosis"},
      {"measurement": "inhibition of apoptosis induced by tumor necrosis factor and cycloheximide (PI staining)", "setting": "3T3 cells [2]", "value": "able to inhibit apoptosis"},
      {"measurement": "CPP32 enzyme activity (cleavage of DEVD-pNA)", "setting": "CPP32", "value": "this rise in activity is not seen"}
    ]},
    {"compound": "GKQKTKTIKGPP", "values": [
      {"measurement": "translocation of PKCa to the nucleus", "setting": "PKCa", "value": "able to specifically inhibit translocation of activated PKCa"}
    ]},
    {"compound": "CN[C@@H]1C[C@H]2O[C@@](C)([C@@H]1OC)n1c3ccccc3c3c4c(c5c6ccccc6n2c5c31)C(=O)NC4", "note": "[staurosporine, Staurosporine]", "values": [
      {"measurement": "apoptosis", "setting": "NIH 3T3 cells", "value": "> 99", "unit": "%"}
    ]}
  ]
}
